# Laboratory results: patent US20090304692A1, “TRIAZINE COMPOUNDS AS PI3 KINASE AND MTOR INHIBITORS” (Wyeth, priority 2008, published 2009)
# Several values for one entry are separate records, joined by “and”; a condition that tells them apart may be missing. Identical values can stand only once. Like-named read-outs stand apart in the source and are kept apart here.
# Legend:
# PI3K-γ = PI3K-γ (Homo sapiens, UniProt P48736); test: PI3K-gamma fluorescence polarization assay; conditions: read-out: IC50 PI3Kγ
# Human mTOR (FLAG-TOR) = Human mTOR (FLAG-TOR) (Homo sapiens, UniProt P42345); test: mTOR kinase assay (DELFIA format, purified enzyme); type: biochemical
# [1] = test system: human prostate PC3-mm2 tumor cell line; test: In vitro cell culture growth assay (MTS), PC3-mm2; type: cell-based; conditions: Homo sapiens, PC3MM2, 72 h, MTS cell growth assay, three days after drug treatment, read-out: IC50 PC3-mm2
# [2] = test system: human breast MDA-MB-361 tumor cell line; test: In vitro cell culture growth assay (MTS), MDA-MB-361; type: cell-based; conditions: Homo sapiens, MTS cell growth assay, three days after drug treatment, read-out: IC50 MDA-MB-361
# PI3K-α = PI3K-α (Homo sapiens, UniProt P42336); test: PI3K-alpha fluorescence polarization assay; conditions: read-out: IC50 PI3Kα
# [3] = MDA-MB-361, 72 h, MDA-MB-361 cells
# Human mTOR (FLAG-TOR), sequence (P42345 1360-2549 limits assumed): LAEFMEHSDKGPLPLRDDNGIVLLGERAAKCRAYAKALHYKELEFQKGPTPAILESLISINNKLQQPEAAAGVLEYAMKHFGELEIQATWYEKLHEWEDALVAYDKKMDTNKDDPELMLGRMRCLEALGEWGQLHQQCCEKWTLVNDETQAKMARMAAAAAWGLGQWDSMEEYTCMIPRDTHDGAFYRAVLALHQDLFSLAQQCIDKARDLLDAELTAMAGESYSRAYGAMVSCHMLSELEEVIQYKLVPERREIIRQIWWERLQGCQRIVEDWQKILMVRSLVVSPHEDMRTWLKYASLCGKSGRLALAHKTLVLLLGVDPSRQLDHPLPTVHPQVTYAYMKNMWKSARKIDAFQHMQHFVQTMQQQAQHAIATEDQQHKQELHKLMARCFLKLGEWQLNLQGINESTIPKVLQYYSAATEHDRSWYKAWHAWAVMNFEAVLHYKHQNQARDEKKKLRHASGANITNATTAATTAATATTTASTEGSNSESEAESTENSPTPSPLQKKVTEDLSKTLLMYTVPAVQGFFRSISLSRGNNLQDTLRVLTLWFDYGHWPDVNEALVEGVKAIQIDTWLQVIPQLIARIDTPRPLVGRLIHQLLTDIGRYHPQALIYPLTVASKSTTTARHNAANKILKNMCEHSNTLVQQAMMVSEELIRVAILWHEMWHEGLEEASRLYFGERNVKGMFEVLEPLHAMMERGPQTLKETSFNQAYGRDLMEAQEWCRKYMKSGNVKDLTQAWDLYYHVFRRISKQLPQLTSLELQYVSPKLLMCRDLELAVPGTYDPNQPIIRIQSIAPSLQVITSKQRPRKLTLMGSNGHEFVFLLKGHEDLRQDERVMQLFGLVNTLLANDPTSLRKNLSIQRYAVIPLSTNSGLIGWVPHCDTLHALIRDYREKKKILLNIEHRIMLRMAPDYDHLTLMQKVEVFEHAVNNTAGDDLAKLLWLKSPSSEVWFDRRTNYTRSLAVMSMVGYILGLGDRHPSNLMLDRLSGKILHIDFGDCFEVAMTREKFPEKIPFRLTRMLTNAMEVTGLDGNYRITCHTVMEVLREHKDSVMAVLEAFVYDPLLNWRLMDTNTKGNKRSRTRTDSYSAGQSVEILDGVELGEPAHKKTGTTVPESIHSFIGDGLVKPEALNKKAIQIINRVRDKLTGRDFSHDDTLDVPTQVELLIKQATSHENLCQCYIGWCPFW
# PI3K-α, sequence (P42336 whole entry, species assumed): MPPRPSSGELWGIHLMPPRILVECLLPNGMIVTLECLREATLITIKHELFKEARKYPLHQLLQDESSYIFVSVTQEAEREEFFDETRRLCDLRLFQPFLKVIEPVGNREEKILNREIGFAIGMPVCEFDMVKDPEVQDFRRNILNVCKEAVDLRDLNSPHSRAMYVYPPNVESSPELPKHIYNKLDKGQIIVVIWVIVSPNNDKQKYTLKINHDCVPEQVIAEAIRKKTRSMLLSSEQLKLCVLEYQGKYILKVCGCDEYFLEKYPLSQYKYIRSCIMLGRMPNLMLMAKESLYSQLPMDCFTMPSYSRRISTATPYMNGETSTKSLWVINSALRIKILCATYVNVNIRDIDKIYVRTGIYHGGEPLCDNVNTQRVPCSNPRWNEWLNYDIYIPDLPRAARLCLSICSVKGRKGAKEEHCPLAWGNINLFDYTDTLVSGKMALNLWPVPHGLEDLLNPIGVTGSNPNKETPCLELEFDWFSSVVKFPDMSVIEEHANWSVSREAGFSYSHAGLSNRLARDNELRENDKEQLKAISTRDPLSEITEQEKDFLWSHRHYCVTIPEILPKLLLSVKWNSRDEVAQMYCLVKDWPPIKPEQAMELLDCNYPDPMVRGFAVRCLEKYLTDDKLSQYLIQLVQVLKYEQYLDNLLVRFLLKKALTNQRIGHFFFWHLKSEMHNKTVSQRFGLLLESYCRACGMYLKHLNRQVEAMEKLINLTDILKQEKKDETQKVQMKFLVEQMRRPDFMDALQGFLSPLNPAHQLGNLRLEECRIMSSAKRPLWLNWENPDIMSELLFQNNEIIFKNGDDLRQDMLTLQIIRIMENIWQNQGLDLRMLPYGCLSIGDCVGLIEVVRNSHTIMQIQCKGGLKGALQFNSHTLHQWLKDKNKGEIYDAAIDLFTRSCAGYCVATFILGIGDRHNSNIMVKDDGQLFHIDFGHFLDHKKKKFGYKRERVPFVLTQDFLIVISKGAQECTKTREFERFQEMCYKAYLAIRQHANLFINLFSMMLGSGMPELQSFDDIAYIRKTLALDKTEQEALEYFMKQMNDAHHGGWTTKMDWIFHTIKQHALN
# PI3K-α, sequence (P27986 whole entry partner, species assumed): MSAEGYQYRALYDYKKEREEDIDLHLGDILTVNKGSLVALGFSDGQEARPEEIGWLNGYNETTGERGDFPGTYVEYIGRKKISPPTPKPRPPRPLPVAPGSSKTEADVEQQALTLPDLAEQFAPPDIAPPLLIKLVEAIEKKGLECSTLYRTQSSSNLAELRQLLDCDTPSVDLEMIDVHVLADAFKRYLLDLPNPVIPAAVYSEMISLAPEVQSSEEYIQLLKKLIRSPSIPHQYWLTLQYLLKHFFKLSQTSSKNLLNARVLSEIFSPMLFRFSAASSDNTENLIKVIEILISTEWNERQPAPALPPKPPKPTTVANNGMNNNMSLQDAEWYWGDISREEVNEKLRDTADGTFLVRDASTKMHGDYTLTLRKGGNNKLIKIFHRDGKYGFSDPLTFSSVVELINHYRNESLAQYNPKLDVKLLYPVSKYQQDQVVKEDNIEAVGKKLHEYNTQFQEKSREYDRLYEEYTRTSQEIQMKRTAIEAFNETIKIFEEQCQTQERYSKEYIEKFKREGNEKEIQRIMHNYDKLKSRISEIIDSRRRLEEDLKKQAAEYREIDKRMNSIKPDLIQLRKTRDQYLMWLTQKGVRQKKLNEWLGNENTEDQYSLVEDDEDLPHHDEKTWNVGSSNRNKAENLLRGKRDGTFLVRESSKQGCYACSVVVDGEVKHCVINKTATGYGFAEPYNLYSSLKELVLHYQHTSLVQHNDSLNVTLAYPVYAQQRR
# PI3K-γ, sequence (P48736 whole entry, species assumed): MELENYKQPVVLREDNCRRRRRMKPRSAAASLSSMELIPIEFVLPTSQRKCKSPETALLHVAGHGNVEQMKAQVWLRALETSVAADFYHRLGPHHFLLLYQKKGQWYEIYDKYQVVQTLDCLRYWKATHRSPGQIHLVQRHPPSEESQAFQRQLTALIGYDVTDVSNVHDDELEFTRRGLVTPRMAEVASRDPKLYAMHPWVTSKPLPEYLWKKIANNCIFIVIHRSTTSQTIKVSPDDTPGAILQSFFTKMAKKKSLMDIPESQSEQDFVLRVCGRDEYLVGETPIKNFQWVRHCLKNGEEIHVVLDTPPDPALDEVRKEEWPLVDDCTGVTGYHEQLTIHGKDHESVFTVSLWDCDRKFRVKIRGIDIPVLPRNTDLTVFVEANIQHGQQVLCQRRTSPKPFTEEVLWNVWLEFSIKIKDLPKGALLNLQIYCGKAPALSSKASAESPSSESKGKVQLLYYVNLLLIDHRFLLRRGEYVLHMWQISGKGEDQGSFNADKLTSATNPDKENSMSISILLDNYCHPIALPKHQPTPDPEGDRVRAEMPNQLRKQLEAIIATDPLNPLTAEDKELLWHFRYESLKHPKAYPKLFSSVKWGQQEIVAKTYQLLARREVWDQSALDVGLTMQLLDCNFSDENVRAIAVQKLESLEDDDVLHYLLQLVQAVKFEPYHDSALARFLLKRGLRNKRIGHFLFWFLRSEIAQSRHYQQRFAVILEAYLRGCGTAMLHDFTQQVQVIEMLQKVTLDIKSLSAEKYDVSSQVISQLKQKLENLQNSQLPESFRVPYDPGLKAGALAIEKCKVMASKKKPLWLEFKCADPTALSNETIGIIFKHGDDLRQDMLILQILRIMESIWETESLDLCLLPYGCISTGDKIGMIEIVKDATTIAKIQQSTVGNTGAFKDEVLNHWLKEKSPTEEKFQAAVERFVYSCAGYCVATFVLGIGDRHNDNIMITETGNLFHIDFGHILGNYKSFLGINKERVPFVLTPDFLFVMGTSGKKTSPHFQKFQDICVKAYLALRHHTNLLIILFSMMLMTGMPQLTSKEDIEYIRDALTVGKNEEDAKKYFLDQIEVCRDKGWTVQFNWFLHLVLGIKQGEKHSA
IC50 (PI3K-γ) [nM],IC50 (Human mTOR (FLAG-TOR); read-out: IC50 mTOR),IC50 [1] [nM],"IC50 ([2]; MDA-MB-361, 72 h) [nM]",IC50 (PI3K-α) [nM],SMILES,IC50 ([1]; PC3-mm2 cells) [nM],also measured
108,6 nM,389,254,80,"COCCOc1nc(-c2ccc(NC(=O)Nc3ccc(C(=O)OC)cc3)cc2)nc(N2CCOCC2)n1 [Example 211, methyl 4-[({4-[4-(2-methoxyethoxy)-6-morpholin-4-yl-1,3,5-triazin-2-yl]phenyl}carbamoyl)amino]benzoate]",389,IC50 (PI3K-γ; listed as 715): 146 nM; IC50 (PI3K-α; listed as 715): 59.5 nM
81,7.3 nM,4030,1500,23,"O=C(Nc1ccc(C(=O)O)cc1)Nc1ccc(-c2nc(C3=CCOCC3)nc(N3CCOCC3)n2)cc1 [Example 227, 4-[({4-[4-(3,6-dihydro-2H-pyran-4-yl)-6-morpholin-4-yl-1,3,5-triazin-2-yl]phenyl}carbamoyl)amino]benzoic acid]",–,–
280,51 nM and 55 nM,7170,3920,46,"O=C(Nc1ccncc1)Nc1ccc(-c2nc(CCNc3ccncc3)nc(N3CCOCC3)n2)cc1 [Example 228, 1-(4-{4-morpholin-4-yl-6-[2-(pyridin-4-ylamino)ethyl]-1,3,5-triazin-2-yl}phenyl)-3-pyridin-4-ylurea]",7170,IC50 (PI3K-γ; listed as 718): 210 nM; IC50 (PI3K-α; listed as 718): 40.5 nM
63,2.5 nM,121,20,4,"CCCCc1nc(-c2ccc(NC(=O)Nc3ccc(C(=O)NCCN(C)C)cc3)cc2)nc(N2CCOCC2)n1 [Example 231, 4-({[4-(4-butyl-6-morpholin-4-yl-1,3,5-triazin-2-yl)phenyl]carbamoyl}amino)-N-[2-(dimethylamino)ethyl]benzamide]",–,–
37,83 nM,177,38,6,"CCCCc1nc(-c2ccc(NC(=O)Nc3ccc(C(=O)N4CCN(C)CC4)cc3)cc2)nc(N2CCOCC2)n1 [Example 232, 1-[4-(4-butyl-6-morpholin-4-yl-1,3,5-triazin-2-yl)phenyl]-3-{4-[(4-methylpiperazin-1-yl)carbonyl]phenyl}urea]",–,–
121,7.9 nM,3340,1210,55,"CCc1nc(-c2ccc(NC(=O)Nc3ccc(C(=O)O)cc3)cc2)nc(N2CCOCC2)n1 [Example 233, 4-({[4-(4-ethyl-6-morpholin-4-yl-1,3,5-triazin-2-yl)phenyl]carbamoyl}amino)benzoic acid]",–,–
15,11 nM and 9.4 nM,67,22.3,3,"CCc1nc(-c2ccc(NC(=O)Nc3ccc(C(=O)N4CCN(C)CC4)cc3)cc2)nc(N2CCOCC2)n1 [Example 236, 1-[4-(4-ethyl-6-morpholin-4-yl-1,3,5-triazin-2-yl)phenyl]-3-{4-[(4-methylpiperazin-1-yl)carbonyl]phenyl}urea]",67,"IC50 (PI3K-γ; listed as 536): 13 nM; IC50 [2, 3]: 22.3 nM; IC50 (PI3K-α; listed as 536): 1.5 nM"
23,3 nM,69,28,2,"CCc1nc(-c2ccc(NC(=O)Nc3ccc(C(=O)NCCN(C)C)cc3)cc2)nc(N2CCOCC2)n1 [Example 237, N-[2-(dimethylamino)ethyl]-4-({[4-(4-ethyl-6-morpholin-4-yl-1,3,5-triazin-2-yl)phenyl]carbamoyl}amino)benzamide]",–,–
10,3.6 nM,61,23,1,"CCc1nc(-c2ccc(NC(=O)Nc3ccc(C(=O)N4CCC(N(C)C)CC4)cc3)cc2)nc(N2CCOCC2)n1 [Example 238, 1-(4-{[4-(dimethylamino)piperidin-1-yl]carbonyl}phenyl)-3-[4-(4-ethyl-6-morpholin-4-yl-1,3,5-triazin-2-yl)phenyl]urea]",–,–
38,3.2 nM,317,184,11,"CCCCc1nc(-c2ccc(NC(=O)Nc3ccc(CO)cc3)cc2)nc(N2CCOCC2)n1 [Example 239, 1-[4-(4-butyl-6-morpholin-4-yl-1,3,5-triazin-2-yl)phenyl]-3-[4-(hydroxymethyl)phenyl]urea]",–,–
6,1.6 nM,12,–,1,"CN(C)CCN(C)C(=O)c1ccc(NC(=O)Nc2ccc(-c3nc(C4=CCOCC4)nc(N4CCOCC4)n3)cc2)cc1 [Example 240, 4-[({4-[4-(3,6-dihydro-2H-pyran-4-yl)-6-morpholin-4-yl-1,3,5-triazin-2-yl]phenyl}carbamoyl)amino]-N-[2-(dimethylamino)ethyl]-N-methylbenzamide]",12,"IC50 (PI3K-γ; listed as 506): 7 nM; IC50 ([2]; 72 h, MDA-MB-361 cells): < 21.7 nM; IC50 (PI3K-α; listed as 506): 0.3 nM"
23,9 nM,135,24,6,"CCCCc1nc(-c2ccc(NC(=O)Nc3ccc(C(=O)N4CCC(N(C)C)CC4)cc3)cc2)nc(N2CCOCC2)n1 [Example 241, 1-[4-(4-butyl-6-morpholin-4-yl-1,3,5-triazin-2-yl)phenyl]-3-(4-{[4-(dimethylamino)piperidin-1-yl]carbonyl}phenyl)urea]",–,–
24,7 nM,49,11,2,"CCc1nc(-c2ccc(NC(=O)Nc3ccc(C(=O)N(C)CCN(C)C)cc3)cc2)nc(N2CCOCC2)n1 [Example 242, N-[2-(dimethylamino)ethyl]-4-({[4-(4-ethyl-6-morpholin-4-yl-1,3,5-triazin-2-yl)phenyl]carbamoyl}amino)-N-methylbenzamide]",–,–
184,18 nM,747,219,22,"CCCCc1nc(-c2ccc(NC(=O)Nc3ccc(CNCCN(C)C)cc3)cc2)nc(N2CCOCC2)n1 [Example 252, 1-[4-(4-butyl-6-morpholin-4-yl-1,3,5-triazin-2-yl)phenyl]-3-[4-({[2-(dimethylamino)ethyl]amino}methyl)phenyl]urea]",–,–
267,9 nM,574,12,8,"CCCCc1nc(-c2ccc(NC(=O)Nc3ccc(C(=O)Nc4ccc(N5CCN(C)CC5)cc4)cc3)cc2)nc(N2CCOCC2)n1 [Example 253, 4-({[4-(4-butyl-6-morpholin-4-yl-1,3,5-triazin-2-yl)phenyl]carbamoyl}amino)-N-[4-(4-methylpiperazin-1-yl)phenyl]benzamide]",–,–
85,16 nM,328,174,48,"CCCCc1nc(-c2ccc(NC(=O)Nc3ccc(C=O)cc3)cc2)nc(N2CCOCC2)n1 [Example 255, 1-[4-(4-butyl-6-morpholin-4-yl-1,3,5-triazin-2-yl)phenyl]-3-(4-formylphenyl)urea]",–,–

SMILES,IC50 (PI3K-γ) [nM],IC50 (Human mTOR (FLAG-TOR); read-out: IC50 mTOR),IC50 [1] [nM],"IC50 ([2]; MDA-MB-361, 72 h) [nM]",IC50 (PI3K-α) [nM],IC50 ([1]; PC3-mm2 cells) [nM],also measured
"CC(=O)c1ccc(NC(=O)Nc2ccc(-c3nc(N4CCOCC4)nc(N4C5CCC4COC5)n3)cc2)cc1 [Example 230, 1-(4-acetylphenyl)-3-{4-[4-morpholin-4-yl-6-(3-oxa-8-azabicyclo[3.2.1]oct-8-yl)-1,3,5-triazin-2-yl]phenyl}urea]",119,1.2 nM and 0.15 nM,–,–,22,< 31,"IC50 (PI3K-γ; listed as 719): 96 nM; IC50 [2, 3]: < 31 nM; IC50 (PI3K-α; listed as 719): 17.5 nM"
"C=Cc1ccc(NC(=O)Nc2ccc(-c3nc(N4CCOCC4)nc(N4C5CCC4COC5)n3)cc2)cc1 [Example 249, 1-(4-ethenylphenyl)-3-{4-[4-morpholin-4-yl-6-(3-oxa-8-azabicyclo[3.2.1]oct-8-yl)-1,3,5-triazin-2-yl]phenyl}urea]",216,2 nM and 2.5 nM,142,92,25,142,IC50 (PI3K-γ; listed as 726): 216 nM
"CN1CCN(Cc2ccc(NC(=O)Nc3ccc(-c4nc(N5CCOCC5)nc(N5C6CCC5COC6)n4)cc3)cc2)CC1 [Example 250, 1-{4-[(4-methylpiperazin-1-yl)methyl]phenyl}-3-{4-[4-morpholin-4-yl-6-(3-oxa-8-azabicyclo[3.2.1]oct-8-yl)-1,3,5-triazin-2-yl]phenyl}urea]",190,–,31,14,21,31,"IC50 (PI3K-γ; listed as 727): 190 nM; IC50 (Human mTOR (FLAG-TOR); IC50 mTOR): 0.9 nM and 0.805 nM; IC50 [2, 3]: 14 nM"
"CN(C)CCOc1ccc(NC(=O)Nc2ccc(-c3nc(N4CCOCC4)nc(N4C5CCC4COC5)n3)cc2)cc1 [Example 266, 1-{4-[2-(dimethylamino)ethoxy]phenyl}-3-{4-[4-morpholin-4-yl-6-(3-oxa-8-azabicyclo[3.2.1]oct-8-yl)-1,3,5-triazin-2-yl]phenyl}urea]",93,1.7 nM and 1.85 nM,–,–,16,< 31,"IC50 (PI3K-γ; listed as 729): 100 nM; IC50 ([2]; 72 h, MDA-MB-361 cells): < 31 nM; IC50 (PI3K-α; listed as 729): 14.5 nM"
